In patent US20260297081A1, “COMPOUNDS AND METHODS OF TREATING CANCERS” (Cullgen Inc., priority 2023, published 2026):
pIC50: −log10 of the molar value.

Legend:
Format in all cases: cell-based
MCF7 cells = test: Anti-proliferation (viability) of MCF7 cells (Table 7, FIG. 2B); details: Homo sapiens, MCF7, MCF7 cells, 3-6 days, 10-point serial dilution; read-out: GI IC50 in MCF-7
T47D cells = test: Anti-proliferation (viability) of ER+ breast cancer T47D cells, 6 days (Table 7, FIG. 2B); details: Homo sapiens, 144 h; T47D cells, 6 days, 10-point serial dilution; read-out: GI IC50 in T47D
Procedure: To evaluate anti-proliferation activities of heterobifunctional compounds, NSCLC Calu-1 or ER+ breast cancer T47D cells were treated with selected heterobifunctional compounds following a 10-point serial dilution for 3 or 6 days, respectively.
To verify that heterobifunctional compound-mediated degradation is dependent on the binding to CDK4-cyclin D complex, a negative control compound, CPD-143, which is derived from active heterobifunctional compound CPD-10 was designed. CPD-143 bears the same DDB1 ligand and linker as CPD-10 but with a modified warhead to impair the binding of the control compound to CDK4.

Calu-1 cells = test: Anti-proliferation (viability) of NSCLC Calu-1 cells, 3 days (Table 7, FIG. 2B); details: Homo sapiens, 72 h; Calu-1 cells, 3 days, 10-point serial dilution; read-out: GI IC50 in Calu-1
Method in brief: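 Heterobifunctional compounds are tested in 10-point serial dilutions on Calu-1 (3-day exposure) and T47D (6-day exposure) cells.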

CDK4 = CDK4 (Homo sapiens, UniProt P11802+Q16531); test: CDK4 percentage degradation in Calu-1 cells (Table 6); parameters: Cells that express cyclin D1-3 and CDK4/6 proteins were treated with heterobifunctional compounds; endogenous in cells; host or cells: Calu-1; details: 16 hours; for inhibition at 0.04 µM: 40 nM; for inhibition at 0.2 µM: 200 nM
Method in brief: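 Percentage degradation of Cyclin D1 and CDK4 derived from densitometry of ECL Western blots on lysates of Calu-1 cells. Treatment was 16 h with compound at either 40 nM or 200 nM.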

Sequence of CDK4 (P11802 2-303 limits assumed): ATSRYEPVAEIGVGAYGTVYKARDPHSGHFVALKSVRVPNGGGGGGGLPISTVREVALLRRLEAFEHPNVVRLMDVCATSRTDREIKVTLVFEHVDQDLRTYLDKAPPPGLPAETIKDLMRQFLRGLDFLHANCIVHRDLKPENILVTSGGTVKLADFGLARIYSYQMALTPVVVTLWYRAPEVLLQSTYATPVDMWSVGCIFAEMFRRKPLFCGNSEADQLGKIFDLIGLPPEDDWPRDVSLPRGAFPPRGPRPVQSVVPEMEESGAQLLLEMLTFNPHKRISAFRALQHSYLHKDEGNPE
Sequence of CDK4 (P24385 whole entry partner): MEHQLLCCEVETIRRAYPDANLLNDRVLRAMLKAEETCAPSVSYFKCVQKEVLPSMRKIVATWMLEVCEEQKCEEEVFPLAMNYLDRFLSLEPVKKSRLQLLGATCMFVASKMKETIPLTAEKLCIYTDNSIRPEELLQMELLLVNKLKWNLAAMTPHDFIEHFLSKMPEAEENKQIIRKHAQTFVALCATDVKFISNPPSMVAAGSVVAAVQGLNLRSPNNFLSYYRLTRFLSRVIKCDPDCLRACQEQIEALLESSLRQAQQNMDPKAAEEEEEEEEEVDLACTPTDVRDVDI
Sequence of CDK4 (Q16531 2-1140 limits assumed): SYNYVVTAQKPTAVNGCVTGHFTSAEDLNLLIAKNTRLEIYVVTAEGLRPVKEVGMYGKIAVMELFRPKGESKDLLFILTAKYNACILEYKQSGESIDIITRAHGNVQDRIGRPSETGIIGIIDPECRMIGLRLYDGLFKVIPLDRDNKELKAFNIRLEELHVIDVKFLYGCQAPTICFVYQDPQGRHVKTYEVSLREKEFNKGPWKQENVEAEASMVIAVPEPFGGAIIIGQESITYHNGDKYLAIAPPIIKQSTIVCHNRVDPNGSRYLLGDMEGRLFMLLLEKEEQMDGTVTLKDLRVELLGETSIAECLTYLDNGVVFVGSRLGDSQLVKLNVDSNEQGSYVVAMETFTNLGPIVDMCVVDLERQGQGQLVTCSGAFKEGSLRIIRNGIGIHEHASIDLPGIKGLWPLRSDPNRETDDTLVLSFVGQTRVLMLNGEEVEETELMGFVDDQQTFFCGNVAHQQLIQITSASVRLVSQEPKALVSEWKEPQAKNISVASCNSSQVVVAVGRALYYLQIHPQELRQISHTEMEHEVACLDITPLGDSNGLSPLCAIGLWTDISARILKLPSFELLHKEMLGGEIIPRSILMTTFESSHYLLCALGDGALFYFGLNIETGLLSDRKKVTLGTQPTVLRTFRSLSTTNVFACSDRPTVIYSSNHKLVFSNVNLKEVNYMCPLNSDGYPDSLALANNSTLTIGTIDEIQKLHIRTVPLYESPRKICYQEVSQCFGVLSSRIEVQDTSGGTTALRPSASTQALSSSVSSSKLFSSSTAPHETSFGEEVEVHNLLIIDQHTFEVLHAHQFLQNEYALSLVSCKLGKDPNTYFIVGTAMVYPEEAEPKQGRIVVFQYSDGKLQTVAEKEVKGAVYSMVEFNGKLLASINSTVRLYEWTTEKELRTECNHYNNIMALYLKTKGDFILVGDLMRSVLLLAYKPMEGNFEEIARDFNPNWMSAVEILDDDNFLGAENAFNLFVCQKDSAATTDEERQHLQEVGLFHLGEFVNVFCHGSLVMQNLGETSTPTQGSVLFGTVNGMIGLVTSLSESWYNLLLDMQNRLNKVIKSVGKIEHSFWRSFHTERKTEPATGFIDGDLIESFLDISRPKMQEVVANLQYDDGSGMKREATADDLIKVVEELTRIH

Row | SMILES | pIC50 (MCF7 cells) | pIC50 (T47D cells) | pIC50 (Calu-1 cells) | inhibition at 0.04 µM (CDK4) | inhibition at 0.2 µM (CDK4)
1 | CC(=O)c1c(C)c2cnc(Nc3ccc(N4CCN(CC(=O)NCCCCCCCNc5nc(C)ccc5C(=O)Nc5ccc(N(C)C)nn5)CC4)cn3)nc2n(C2CCCC2)c1=O [CPD-8, 2-((7-(2-(4-(6-((6-acetyl-8-cyclopentyl-5-methyl-7-oxo-7,8-dihydropyrido[2,3-d]pyrimidin-2-yl)amino)pyridin-3-yl)piperazin-1-yl)acetamido)heptyl)amino)-N-(6-(dimethylamino)pyridazin-3-yl)-6-methylnicotinamide] | > 7.30 | ≥ 7.30 | ≥ 8.00 | 50 to 80% | > 80%
2 | CNc1ccc(C(=O)Nc2ccc(OC)nn2)c(NCCCCCCCNC(=O)CN2CCN(c3ccc(Nc4ncc5c(C)c(C(C)=O)c(=O)n(C6CCCC6)c5n4)nc3)CC2)n1 [CPD-11, 2-((7-(2-(4-(6-((6-Acetyl-8-cyclopentyl-5-methyl-7-oxo-7,8-dihydropyrido[2,3-d]pyrimidin-2-yl)amino)pyridin-3-yl)piperazin-1-yl)acetamido)heptyl)amino)-N-(6-methoxypyridazin-3-yl)-6-(methylamino)nicotinamide] | > 7.30 | 7.00 to 7.30 | 7.30 to 8.00 | 50 to 80% | > 80%
3 | CNc1ccc(C(=O)Nc2ccc(N(C)C)nn2)c(NCCCCCNC(=O)C(C)N2CCN(c3ccc(Nc4ncc5c(C)c(C(C)=O)c(=O)n(C6CCCC6)c5n4)nc3)CC2)n1 (stereo not shown) [CPD-14, 2-((5-(2-(4-(6-((6-Acetyl-8-cyclopentyl-5-methyl-7-oxo-7,8-dihydropyrido[2,3-d]pyrimidin-2-yl)amino)pyridin-3-yl)piperazin-1-yl)propanamido)pentyl)amino)-N-(6-(dimethylamino)pyridazin-3-yl)-6-(methylamino)nicotinamide] | > 7.30 | 7.00 to 7.30 | ≥ 8.00 | 50 to 80% | 50 to 80%
4 | CC(=O)c1c(C)c2cnc(Nc3ccc(N4CCN(CC(=O)NCCCCCNc5nc(C)ccc5C(=O)Nc5ccc(N(C)C)nn5)CC4)cn3)nc2n(C2CCCC2)c1=O [CPD-16, 2-((5-(2-(4-(6-((6-Acetyl-8-cyclopentyl-5-methyl-7-oxo-7,8-dihydropyrido[2,3-d]pyrimidin-2-yl)amino)pyridin-3-yl)piperazin-1-yl)acetamido)pentyl)amino)-N-(6-(dimethylamino)pyridazin-3-yl)-6-methylnicotinamide] | > 7.30 | ≥ 7.30 | ≥ 8.00 | 50 to 80% | 50 to 80%
5 | CC(=O)c1c(C)c2cnc(Nc3ccc(N4CCN(CC(=O)NCCCCCNc5nc(NC(C)C)ccc5C(=O)Nc5ccc(N(C)C)nn5)CC4)cn3)nc2n(C2CCCC2)c1=O [CPD-18, 2-((5-(2-(4-(6-((6-Acetyl-8-cyclopentyl-5-methyl-7-oxo-7,8-dihydropyrido[2,3-d]pyrimidin-2-yl)amino)pyridin-3-yl)piperazin-1-yl)acetamido)pentyl)amino)-N-(6-(dimethylamino)pyridazin-3-yl)-6-(isopropylamino)nicotinamide] | > 7.30 | ≥ 7.30 | ≥ 8.00 | 50 to 80% | 50 to 80%
6 | CNc1ccc(C(=O)Nc2ccc(N(C)C)nn2)c(NCCCCCNCCN2CCN(c3ccc(Nc4ncc5c(C)c(C(C)=O)c(=O)n(C6CCCC6)c5n4)nc3)CC2)n1 [CPD-21, 2-((5-((2-(4-(6-((6-Acetyl-8-cyclopentyl-5-methyl-7-oxo-7,8-dihydropyrido[2,3-d]pyrimidin-2-yl)amino)pyridin-3-yl)piperazin-1-yl)ethyl)amino)pentyl)amino)-N-(6-(dimethylamino)pyridazin-3-yl)-6-(methylamino)nicotinamide] | < 7.00 | 7.00 to 7.30 | 7.30 to 8.00 | 50 to 80% | 
7 | CNc1ccc(C(=O)Nc2ccc(N(C)C)nn2)c(NCCCCC(C)NC(=O)CN2CCN(c3ccc(Nc4ncc5c(C)c(C(C)=O)c(=O)n(C6CCCC6)c5n4)nc3)CC2)n1 (stereo not shown) [CPD-22, 2-((5-(2-(4-(6-((6-Acetyl-8-cyclopentyl-5-methyl-7-oxo-7,8-dihydropyrido[2,3-d]pyrimidin-2-yl)amino)pyridin-3-yl)piperazin-1-yl)acetamido)hexyl)amino)-N-(6-(dimethylamino)pyridazin-3-yl)-6-(methylamino)nicotinamide] | 7.00 to 7.30 | ≥ 7.30 | ≥ 8.00 | > 80% | > 80%
8 | CNc1ccc(C(=O)Nc2ccc(N(C)C)nn2)c(Nc2cnn(CCNC(=O)CN3CCN(c4ccc(Nc5ncc6c(C)c(C(C)=O)c(=O)n(C7CCCC7)c6n5)nc4)CC3)c2)n1 [CPD-24, 2-((1-(2-(2-(4-(6-((6-Acetyl-8-cyclopentyl-5-methyl-7-oxo-7,8-dihydropyrido[2,3-d]pyrimidin-2-yl)amino)pyridin-3-yl)piperazin-1-yl)acetamido)ethyl)-1H-pyrazol-4-yl)amino)-N-(6-(dimethylamino)pyridazin-3-yl)-6-(methylamino)nicotinamide] | < 7.00 | ≤ 7.00 | 7.30 to 8.00 | 50 to 80% | > 80%
9 | CNc1ccc(C(=O)Nc2ccc(N(C)C)nn2)c(Nc2cc(CCNC(=O)CN3CCN(c4ccc(Nc5ncc6c(C)c(C(C)=O)c(=O)n(C7CCCC7)c6n5)nc4)CC3)no2)n1 [CPD-26, 2-((3-(2-(2-(4-(6-((6-Acetyl-8-cyclopentyl-5-methyl-7-oxo-7,8-dihydropyrido[2,3-d]pyrimidin-2-yl)amino)pyridin-3-yl)piperazin-1-yl)acetamido)ethyl)isoxazol-5-yl)amino)-N-(6-(dimethylamino)pyridazin-3-yl)-6-(methylamino)nicotinamide] | < 7.00 | 7.00 to 7.30 | 7.30 to 8.00 | 50 to 80% | 50 to 80%
10 | CC(=O)c1c(C)c2cnc(Nc3ccc(N4CCN(CC(=O)NCCCCCNc5nc(C6CC6)ccc5C(=O)Nc5ccc(N(C)C)nn5)CC4)cn3)nc2n(C2CCCC2)c1=O [CPD-27, 2-((5-(2-(4-(6-((6-Acetyl-8-cyclopentyl-5-methyl-7-oxo-7,8-dihydropyrido[2,3-d]pyrimidin-2-yl)amino)pyridin-3-yl)piperazin-1-yl)acetamido)pentyl)amino)-6-cyclopropyl-N-(6-(dimethylamino)pyridazin-3-yl)nicotinamide] | 7.00 to 7.30 | 7.00 to 7.30 | ≥ 8.00 | > 80% | > 80%
11 | CNc1ccc(C(=O)Nc2ccc(N(C)C)nn2)c(NCCCCn2cc(CN3CCN(c4ccc(Nc5ncc6c(C)c(C(C)=O)c(=O)n(C7CCCC7)c6n5)nc4)CC3)nn2)n1 [CPD-30, 2-((4-(4-((4-(6-((6-Acetyl-8-cyclopentyl-5-methyl-7-oxo-7,8-dihydropyrido[2,3-d]pyrimidin-2-yl)amino)pyridin-3-yl)piperazin-1-yl)methyl)-1H-1,2,3-triazol-1-yl)butyl)amino)-N-(6-(dimethylamino)pyridazin-3-yl)-6-(methylamino)nicotinamide] | < 7.00 | 7.00 to 7.30 | 7.30 to 8.00 | 50 to 80% | > 80%
12 | CNc1ccc(C(=O)Nc2ccc3c(ccn3C)n2)c(NCCCCCNC(=O)CN2CCN(c3ccc(Nc4ncc5c(C)c(C(C)=O)c(=O)n(C6CCCC6)c5n4)nc3)CC2)n1 [CPD-33, 2-((5-(2-(4-(6-((6-Acetyl-8-cyclopentyl-5-methyl-7-oxo-7,8-dihydropyrido[2,3-d]pyrimidin-2-yl)amino)pyridin-3-yl)piperazin-1-yl)acetamido)pentyl)amino)-N-(1-methyl-1H-pyrrolo[3,2-b]pyridin-5-yl)-6-(methylamino)nicotinamide] | < 7.00 | 7.00 to 7.30 | 7.30 to 8.00 | 50 to 80% | > 80%
13 | CNc1ccc(C(=O)Nc2ccc(N(C)C)nn2)c(NC2CC(CCNC(=O)CN3CCN(c4ccc(Nc5ncc6c(C)c(C(C)=O)c(=O)n(C7CCCC7)c6n5)nc4)CC3)C2)n1 (stereo not shown) [CPD-34, 2-((3-(2-(2-(4-(6-((6-Acetyl-8-cyclopentyl-5-methyl-7-oxo-7,8-dihydropyrido[2,3-d]pyrimidin-2-yl)amino)pyridin-3-yl)piperazin-1-yl)acetamido)ethyl)cyclobutyl)amino)-N-(6-(dimethylamino)pyridazin-3-yl)-6-(methylamino)nicotinamide] | > 7.30 | ≥ 7.30 | ≥ 8.00 | > 80% | > 80%
